Data on 26 compounds can be found in patent US6200984A, “Naphtho-imidazo pyridine derivatives useful in treating central nervous system disorders” (Ortho-McNeil Pharmaceutical, Inc., priority 1998, dated 2001).

Usually ED50 stands for the dose at which the effect has come halfway, by size or by number of responders. A word on the IC50: it is the concentration at which inhibition is half-maximal. Low readings indicate greater potency, high ones weaker potency.

Experiment [1] deals with behavior suppressed by punishment (rat conflict). Kind of experiment: Suppression of Anxiety in the Adult Male Rat (rat conflict, Vogel). The experiment is classed as in vivo. Particulars: po. As for the experimental part:
Assay to Measure the Suppression of Anxiety in the Adult Male Rat
Male rats were deprived of water for 48 hours and were deprived of food for 24 hours prior to testing. After the first 24 hours of water deprivation, they were placed in the conflict chamber for a training period; wherein, they were allowed 200 unpunished licks from a bottle containing tap water. The experiment was run the next day. At the expected time of peak activity, the animals were placed in the chamber and allowed access to tap water. […] Their first lick initiates a 3-min test session. Subsequently,every 20th lick was punished by a 0.2-s shock delivered via the stainless-steel drinking-tube. […] The Wilcoxon rank-sum test (Mann-WhitneyU-test) was used to test for an increase (p<0.05, 1-tailed) in the median number of shocks in drug-treated groups, compared to a concurrently run vehicle-treated group. The biological assay is considered to be valid if the effects of a known anxiolytic (positive control) are detected, within the same experiment.

For experiment [2], the system named is Metrazol-Induced Convulsions. In words: Suppression of Metrazol-Induced Convulsions in Adult Male Mice. The experiment is classed as in vivo, mice (male CD1). Particulars: Mus musculus, ip, read-out: anti-metrazol ED50. As for the experimental part: Assay to Determine the Suppression of Metrazol-Induced Convulsions in Adult Male Mice
Male CD1 mice, were fasted at least 16 hours, were divided into equal groups and test compounds or vehicle were administered parenterally. Water was not withheld except during the period of observations. […] Metrazol was dissolved in 0.9% sodium chloride solution, and its dose volume was 10 ml/kg. Animals were housed individually for observation of clonic convulsions, tonic convulsions and death for a period of 30 min. […] The biological assay was considered to be valid if the effects of a known anticonvulsant (positive control) were detected, within the same experiment. Activity was reported as percent reduction of clonic convulsions from the vehicle group.

Experiment [3] deals with benzodiazepine site of the GABA-A receptor. In words: Benzodiazepine Receptor Binding Assay (inhibition of 3H-flunitrazepam binding). Conditions: 3H-flunitrazepam ca. 3 nM.
[4] abbreviates: minimum effective dose, Wilcoxon rank-sum test p<0.05, read-out: rat conflict MED.
Setting [5] is: Rattus norvegicus, read-out: rat conflict MED, po, minimum effective dose, Wilcoxon rank-sum test p<0.05.
Where [6] appears, read: mice, s.c. CD90 metrazol, clonic convulsions.

Read-outs that look alike come from different tables or passages of the source.

With `O=C1CCN2C(=C1C(=O)Nc1ccccc1F)Nc1cc3ccccc3cc12` [Example 1, 3-oxo-1,2,3,5-tetrahydronaphtho[2',3': 4,5]imidazo[1,2-a]pyridine-4-carboxylic acid (2-fluorophenyl)amide], the minimal effective dose in experiment [1] (setting [4]) was above 10 mg/kg. Moreover, in experiment [2], the ED50 was found to be 1 mg/kg. The IC50 in experiment [3] came to 17 nM.

As to `O=C1CCN2C(=C1C(=O)Nc1c(F)cccc1F)Nc1cc3ccccc3cc12` [Example 2, 3-oxo-1,2,3,5-tetrahydronaphtho[2',3': 4,5]imidazo[1,2-a]pyridine-4-carboxylic acid (2,6-difluorophenyl)amide], in experiment [1] (setting [5]), the minimal effective dose is above 10 mg/kg. Besides, the ED50 in experiment [2] (setting [6]) came to 1 mg/kg. In experiment [3], the IC50 stood at 3.95 nM.

In the case of `CCN1C2=C(C(=O)Nc3ccccc3F)C(=O)CCN2c2cc3ccccc3cc21` [Example 3, 5-ethyl-3-oxo-1,2,3,5-tetrahydronaphtho[2',3': 4,5]imidazo[1,2-a]pyridine-4-carboxylic acid (2-fluorophenyl)amide], the minimal effective dose in experiment [1] (setting [4]) was 10 mg/kg. The ED50 in experiment [2] (setting [6]) was below 1 mg/kg. In experiment [3], this compound came in with a 50% inhibitory concentration (IC50) of 0.94 nM.

In the case of `CCN1C2=C(C(=O)Nc3c(F)cccc3F)C(=O)CCN2c2cc3ccccc3cc21` [Example 4, 5-ethyl-3-oxo-1,2,3,5-tetrahydronaphtho[2',3': 4,5]imidazo[1,2-a]pyridine-4-carboxylic acid (2,6-difluorophenyl)amide], in experiment [1] (setting [4]), the minimal effective dose was above 10 mg/kg. Besides, in experiment [2] (setting [6]), the ED50 is above 1 mg/kg. In experiment [3], this compound displayed an IC50 of 6.87 nM.

Take `COCCN1C2=C(C(=O)Nc3ccccc3F)C(=O)CCN2c2cc3ccccc3cc21` [Example 5, 5-(2-methoxyethyl)-3-oxo-1,2,3,5-tetrahydronaphthol[2',3': 4,5]-imidazo[1,2-a]pyridine-4-carboxylic acid (2-fluorophenyl)amide]: the minimal effective dose in experiment [1] (setting [4]) worked out at 10 mg/kg. In experiment [2] (setting [6]), the ED50 was below 1 mg/kg. The IC50 in experiment [3] turned out to be 0.37 nM.

Turning to `CN(CCN1C2=C(C(=O)Nc3ccccc3F)C(=O)CCN2c2cc3ccccc3cc21)Cc1ccccc1` [Example 6, 5-[2-(benzylmethylamino)ethyl)-3-oxo-1,2,3,5-tetrahydronaphtho[2',3': 4,5]imidazo[1,2-a]pyridine-4-carboxylic acid (2-fluorophenyl)amide], the minimal effective dose in experiment [1] (setting [5]) was above 10 mg/kg. For the same compound, in experiment [2] (setting [6]), the ED50 was above 1 mg/kg. The compound further came in with an IC50 in experiment [3] of 8.02 nM.

Take `CN(CCN1C2=C(C(=O)Nc3c(F)cccc3F)C(=O)CCN2c2cc3ccccc3cc21)Cc1ccccc1` [Example 7, 5-[2-(benzylmethylamino)ethyl)-3-oxo-1,2,3,5-tetrahydronaphtho[2',3': 4,5]imidazo[1,2-a]pyridine-4-carboxylic acid (2.6-difluorophenyl)amide]: the minimal effective dose in experiment [1] (setting [4]) was above 10 mg/kg. Moreover, in experiment [2] (setting [6]), the ED50 is above 1 mg/kg. The IC50 in experiment [3] was 58 nM.

Consider `CNCCN1C2=C(C(=O)Nc3ccccc3F)C(=O)CCN2c2cc3ccccc3cc21.Cl` [Example 8, 5-[2-(methylamino)ethyl)-3-oxo-1,2,3,5-tetrahydronaphtho[2',3': 4,5]imidazo[1,2-a]pyridine-4-carboxylic acid (2-fluorophenyl)amide hydrochloride], for which the minimal effective dose in experiment [1] (setting [5]) was above 10 mg/kg. Further, the median effective dose (ED50) in experiment [2] (setting [6]) was above 1 mg/kg. The same compound showed an IC50 in experiment [3] of 7.98 nM.

For `CNCCN1C2=C(C(=O)Nc3c(F)cccc3F)C(=O)CCN2c2cc3ccccc3cc21.Cl` [Example 9, 5-[2-(methylamino)ethyl)-3-oxo-1,2,3,5-tetrahydronaphtho[2',3': 4,5]imidazo[1,2-a]pyridine-4-carboxylic acid (2,6-difluorophenyl)amide hydrochloride], the minimal effective dose in experiment [1] (setting [4]) is above 10 mg/kg. In experiment [2] (setting [6]), the ED50 was above 1 mg/kg. The same compound came in with an IC50 in experiment [3] of 75 nM.

For the compound `CCOCN1C2=C(C(=O)Nc3c(F)cccc3F)C(=O)CCN2c2cc3ccccc3cc21` [Example 10, 5-Ethoxymethyl-3-oxo-1,2,3,5-tetrahydronaphtho[2',3': 4,5]-imidazo[1,2-a]pyridine-4-carboxylic acid (2,6-difluorophenyl)amide], in experiment [1] (setting [4]), the minimal effective dose was above 10 mg/kg. Moreover, in experiment [2] (setting [6]), the ED50 is above 1 mg/kg. The same compound gave an IC50 in experiment [3] of 13 nM.

For `O=C1CCN2C(=C1C(=O)Nc1ccccc1F)Nc1ccc3ccccc3c12` [Example 11, 3-Oxo-1,2,3,5-tetrahydronaphtho[2',1': 4,5]imidazo[1,2-a]-pyridine-4-carboxylic acid (2-fluorophenylamide)], in experiment [1] (setting [4]), the minimal effective dose was above 10 mg/kg. The ED50 in experiment [2] (setting [6]) was above 1 mg/kg. For the same compound, the IC50 in experiment [3] is above 1000 nM.

Consider `COCCN1C2=C(C(=O)Nc3ccccc3F)C(=O)CCN2c2c1ccc1ccccc21` [Example 12, 5-(2-Methoxyethyl)-3-oxo-1,2,3,5-tetrahydronaphtho[2',1': 4,5]-imidazo[1,2-a]pyridine-4-carboxylic acid (2-fluorophenylamide)], for which the minimal effective dose in experiment [1] (setting [4]) is above 10 mg/kg. Also, the ED50 in experiment [2] (setting [6]) is above 1 mg/kg. In experiment [3], this compound showed an IC50 of 58 nM.

Consider `O=C1CCN2C(=C1C(=O)Nc1ccccc1F)Nc1c2ccc2ccccc12` [Example 13, 3-Oxo-1,2,3,5-tetrahydronaphtho[1',2': 4,5]imidazo[1,2-a]pyridine-4-carboxylic acid (2-fluorophenylamide)], for which, in experiment [1] (setting [4]), the minimal effective dose is above 10 mg/kg. For the same compound, in experiment [2] (setting [6]), the ED50 is above 1 mg/kg. The IC50 in experiment [3] came to 154 nM.

On to `O=C1CCN2C(=C1C(=O)Nc1ccccc1F)N(CC1CC1)c1cc3ccccc3cc12` [Example 14], for which the minimal effective dose in experiment [1] (setting [5]) is above 10 mg/kg. Moreover, in experiment [2] (setting [6]), the ED50 is below 1 mg/kg. In experiment [3], the 50% inhibitory concentration (IC50) worked out at 0.57 nM.

As to `CCOCN1C2=C(C(=O)Nc3ccccc3F)C(=O)CCN2c2cc3ccccc3cc21` [Example 15], the minimal effective dose in experiment [1] (setting [5]) is above 10 mg/kg. In addition, the ED50 in experiment [2] (setting [6]) was below 1 mg/kg. In experiment [3], the IC50 is 2.18 nM.

`CCN1C2=C(C(=O)Nc3cccs3)C(=O)CCN2c2cc3ccccc3cc21` [Example 16]: the minimal effective dose in experiment [1] (setting [4]) is above 10 mg/kg. Besides, the ED50 in experiment [2] (setting [6]) is below 1 mg/kg. In experiment [3], this compound registered an IC50 of 0.7 nM.

Take `O=C1CCN2C(=C1C(=O)Nc1nccs1)Nc1cc3ccccc3cc12` [Example 17]: the ED50 in experiment [2] (setting [6]) is above 1 mg/kg. This compound yielded an IC50 in experiment [3] of 360 nM.

`CCN1C2=C(C(=O)Nc3nccs3)C(=O)CCN2c2cc3ccccc3cc21` [Example 18]: the minimal effective dose in experiment [1] (setting [5]) was above 10 mg/kg. Further, the ED50 in experiment [2] (setting [6]) was below 1 mg/kg. The IC50 in experiment [3] was determined as 11.1 nM.

For `COCCN1C2=C(C(=O)Nc3nccs3)C(=O)CCN2c2cc3ccccc3cc21` [Example 19], the minimal effective dose in experiment [1] (setting [5]) was above 10 mg/kg. Further, the ED50 in experiment [2] (setting [6]) is below 1 mg/kg. The same compound had an IC50 in experiment [3] of 3.37 nM.

Take `O=C1CCN2C(=C1C(=O)Nc1c(F)cccc1F)Nc1c2ccc2ccccc12` [Example 20]: the minimal effective dose in experiment [1] (setting [4]) is above 10 mg/kg. The ED50 in experiment [2] (setting [6]) is below 1 mg/kg. In experiment [3], this compound yielded an IC50 of 2.73 nM.

Take `CCN1C2=C(C(=O)Nc3ccccc3F)C(=O)CCN2c2ccc3ccccc3c21` [Example 21]: the minimal effective dose in experiment [1] (setting [4]) was above 10 mg/kg. In addition, in experiment [2] (setting [6]), the ED50 was above 1 mg/kg. This compound displayed an IC50 in experiment [3] of 16.5 nM.

Turning to `COCCN1C2=C(C(=O)Nc3ccccc3F)C(=O)CCN2c2ccc3ccccc3c21` [Example 22], the minimal effective dose in experiment [1] (setting [5]) is above 10 mg/kg. Moreover, the ED50 in experiment [2] (setting [6]) was above 1 mg/kg. This compound had an IC50 in experiment [3] of 31.8 nM.

As for `O=C1CCN2C(=C1C(=O)Nc1c(F)cccc1F)Nc1c2ccc2ccccc12` [Example 23], the minimal effective dose in experiment [1] (setting [5]) came out at 10 mg/kg. In addition, the IC50 in experiment [3] is 17.9 nM.

On to `COCCN1C2=C(C(=O)Nc3c(F)cccc3F)C(=O)CCN2c2ccc3ccccc3c21` [Example 24], for which the minimal effective dose in experiment [1] (setting [4]) was above 3 mg/kg. Moreover, the ED50 in experiment [2] (setting [6]) stood at 1 mg/kg. This compound returned an IC50 in experiment [3] of 0.29 nM.

For `CCOCCN1C2=C(C(=O)Nc3c(F)cccc3F)C(=O)CCN2c2ccc3ccccc3c21` [Example 25], in experiment [1] (setting [4]), the minimal effective dose was above 3 mg/kg. The IC50 in experiment [3] worked out at 3.72 nM.

For the compound `CCOCN1C2=C(C(=O)Nc3c(F)cccc3F)C(=O)CCN2c2ccc3ccccc3c21` [Example 26], the minimal effective dose in experiment [1] (setting [5]) was above 10 mg/kg. The compound also displayed an IC50 in experiment [3] of 10.3 nM.
